Experiments:
CT genes = conditions: cited from earlier work; for expression of CT genes, combination with 5-AZA-DC: HDAC inhibitor combined with 5-AZA-DC
[1] = tested on: MAGE-A9 gene expression in bladder cancer cell lines; assay: RT-PCR analysis of MAGE-A9 gene expression induction in bladder cancer cell lines; conditions: MGH-U3, 5637 and VMCUB-3; 1 μM 5-AZA-DC alone, 96 hours

| Structure (SMILES) | expression of CT genes, combination with 5-AZA-DC (CT genes) | induction of the expression of several CT genes (CT genes; single agent) | MAGE-A9 mRNA induction [1] |
| --- | --- | --- | --- |
| C/C=C1\NC(=O)[C@H]2CSSCC/C=C/[C@H](CC(=O)N[C@H](C(C)C)C(=O)N2)OC(=O)[C@H](C(C)C)NC1=O [depsipetide] | stronger expression | – | – |
| Nc1ncn([C@H]2C[C@H](O)[C@@H](CO)O2)c(=O)n1 [5-AZA-DC, 5-aza-2′-deoxycytidine] | – | potent inducers | strongly induced |
| CC(/C=C/C(=O)NO)=C\[C@@H](C)C(=O)c1ccc(N(C)C)cc1 [trichostatin A] | stronger expression | – | – |

Reference: patent US20090028888A1, “Cancer Antigen Mage-A9 and Uses Thereof” (priority 2005, published 2009)
